In paper PMC11842024, “Reversible male contraception by targeted inhibition of serine/threonine kinase 33” (Science (New York, N.Y.), 2024):
One block for each compound: values may come before it.

Assays:
[1] = Metabolic stability assay in liver microsomes (HLM); assay type: in vitro ADME, human; conditions: 2.0 µM, 0.5 mg protein/mL, NADPH, data >60 min is an extrapolated estimate; for half-life at 2 µM: human, liver microsomes, read-out: Metabolic stability HLM, t1/2
Description: (§1) Metabolic stability assay in liver microsomes. The stabilities of CDD-2110, CDD-2211, CDD-2212, CDD-2807, and CDD-3348 in liver microsomes with/without Uridine Diphosphate Glucuronic Acid (UDP-GA, a cofactor of UDP-glucuronosyltransferases) were performed and half-life was calculated as previously reported (36). Briefly, each CDD compound (2.0 μM) was incubated in the mouse or human liver microsomes (0.5 mg protein/mL) at 37°C in 1× PBS fortified with NADPH (1.0 mM) and with/without UDP-GA (2.5 mM). Alamethicin (25 µg/mL) as a pore forming agent was used for the glucuronidation (Table S2A). The samples were collected at specific time-points 0, 30, and 60 min in duplicate. The reactions were terminated by adding equivalent volume of ice-cold methanol (CH3OH) and vortexed. After centrifugation at 15000 g for 10 min, 3.0 μL of the supernatant was analyzed by Thermo TSQ Quantis MS coupled with a Thermo Vanquish UHPLC (San Jose, CA) equipped with a Luna C18 column (1 mm × 50 mm, 1.6 µm, Phenomenex, Torrance, CA). The column temperature was maintained at 40°C. CDD-2807 was monitored under the selected reaction monitoring (SRM) mode coupled with a positive electrospray ionization (ESI) source. The SRM ion pairs were 447→321 for CDD-2807.

CLK1 [2] = molecular target: T1, CLK1 (Homo sapiens, UniProt P49759); experiment: NanoBRET target engagement intracellular kinase assay; assay type: cell-based; parameters: host or cells: HEK293 (HEK293T cultured); conditions: for IC50: HEK293 cells, 2 hours incubation; for Fold NanoBRET IC50 CLK1 over STK33 (in parentheses): selectivity vs STK33
Description: (§2) NanoBRET Target Engagement intracellular kinase assay. HEK293T cells were cultured in […]
(§3) The cell line underwent authentication by short tandem repeat (STR) profiling at Cytogenetics and Cell Authentication Core (CCAC) at MD Anderson Cancer Center. NanoBRET Target Engagement intracellular kinase assay, K-10 assay (Cat. # N2641), K-9 assay (Cat. # N2631), transfection reagent FuGENE HD (Cat. # E2311), transfection carrier DNA (Cat. # E4881), NanoLuc-STK33 fusion vector (Cat. # NV2111), NanoLuc-RET fusion vector (Cat. # NV1951), NanoLuc-CLK1 fusion vector (Cat. # NV1131), NanoLuc-CLK2 fusion vector (Cat. # NV1141), and NanoLuc-CLK4 fusion vector (Cat. # NV1151) were purchased from Promega. The measurement of test compound engagement with cellular target protein was performed in a 384-well format according to manufacturer’s instructions. HEK293 cells were transiently transfected with NanoLuc (STK33, RET, CLK1, CLK2, and CLK4) fusion vectors. After 36 hours of transfection, cells were treated with a fixed concentration of tracer (recommended by Promega) followed by compounds (inhibitors) for 2 hours of incubation. To determine the test compound […]
(§4) 0.4 nM at a fixed tracer concentration. Staurosporine was measured in parallel as a positive control.
(§5) Freshly prepared NanoBRET Nano-Glo substrate plus extracellular NanoLuc inhibitor was then added to initiate the subsequent bioluminescence resonance energy transfer (BRET) measurements using a CLARIOstar Plus BMG LABTECH plate reader. Data analysis was done by measuring the ratio of acceptor emission to donor emission (BRET ratio) and normalized by subtracting no-tracer-control-background. IC50 values were obtained by nonlinear regression using a four-parameter equation in GraphPad Prism 7 (San Diego, CA).

RET [3] = molecular target: T2, RET (Homo sapiens, UniProt P07949); experiment: as above; assay type: cell-based; parameters: host or cells: HEK293 (HEK293T cultured); conditions: for IC50: HEK293 cells, 2 hours incubation; for Fold NanoBRET IC50 RET over STK33 (in parentheses): selectivity vs STK33
Description: as §2, §3, §4, §5

CLK2 [4] = molecular target: T3, CLK2 (Homo sapiens, UniProt P49760); experiment: as above; assay type: cell-based; parameters: host or cells: HEK293 (HEK293T cultured); conditions: for IC50: HEK293 cells, 2 hours incubation; for Fold NanoBRET IC50 CLK2 over STK33 (in parentheses): selectivity vs STK33
Description: as §2, §3, §4, §5

CLK4 [5] = molecular target: T4, CLK4 (Homo sapiens, UniProt Q9HAZ1); experiment: as above; assay type: cell-based; parameters: host or cells: HEK293 (HEK293T cultured); conditions: for IC50: HEK293 cells, 2 hours incubation; for Fold NanoBRET IC50 CLK4 over STK33 (in parentheses): selectivity vs STK33
Description: as §2, §3, §4, §5

STK33 [6] = molecular target: T5, STK33 (Homo sapiens, UniProt Q9BYT3); experiment: as above; assay type: cell-based; parameters: host or cells: HEK293 (HEK293T cultured); conditions: for IC50: HEK293 cells, 2 hours incubation
Description: as §2, §3, §4, §5

[7] = Metabolic stability assay in liver microsomes (MLM); assay type: in vitro ADME, mouse; conditions: 2.0 µM, 0.5 mg protein/mL, NADPH, data >60 min is an extrapolated estimate; for half-life at 2 µM: mouse, liver microsomes, read-out: Metabolic stability MLM, t1/2
Description: as §1

STK33 [8] = molecular target: T5, STK33; experiment: LanthaScreen binding assay (ThermoFisher SelectScreen); parameters: purchased SelectScreen Services (ThermoFisher)
Excerpt: (§6) In vitro biochemical assays. Several small molecule assays were outsourced to SelectScreen Services (ThermoFisher) for STK33 and for off-target kinases (data sets are available on demand).
(§7) These assays are LanthaScreen (binding assay) and Z’-LYTE (activity assay). Dose-responses were done with at least 5 different concentrations in duplicates, and parameters were optimized by calculations described below and provided with standard errors.
(§8) Calculation of Kd values for kinase inhibitors that bind to the ATP pocket of a kinase from LanthaScreen binding data. DynaFit (71) was used to fit complex equilibria where a tracer is displaced by a dilution series of a kinase inhibitor. This method relies on the concentration of inhibitor, as well as the concentration of kinase and tracer, and Kd of the tracer. The latter three parameters are tabulated by ThermoFisher for each kinase in the LanthaScreen assay panel. […]
Since Kd and Ki values are defined the same way, in other words, Kd = [E] [I] / [EI] = Ki, Kd and Ki values can be compared. […]

CLK4 [9] = molecular target: T4, CLK4; experiment: as above; parameters: purchased SelectScreen Services (ThermoFisher)
Excerpt: as §6, §7, §8

CLK1 [10] = molecular target: T1, CLK1; experiment: Z'-LYTE activity assay (ThermoFisher SelectScreen); assay type: biochemical; parameters: purchased SelectScreen Services (ThermoFisher); conditions: [ATP] = Kmapp
Excerpt: as §6
(§9) These assays are LanthaScreen (binding assay) and Z’-LYTE (activity assay). Dose-responses were done with at least 5 different concentrations in duplicates, and parameters were optimized by calculations described below and provided with standard errors. […]
(§10) Calculation of Ki values for kinase inhibitors from Z’-LYTE inhibition data. The Morrison equation with [ATP] = Kmapp for competitive inhibition (GraphPad Prism 7, San Diego, CA) was used to get Ki values. Since Kd and Ki values are defined the same way, in other words, Kd = [E] [I] / [EI] = Ki, Kd and Ki values can be compared. […]

RET [11] = molecular target: T2, RET; experiment: Z'-LYTE activity assay (ThermoFisher SelectScreen); assay type: biochemical; parameters: purchased SelectScreen Services (ThermoFisher); conditions: [ATP] = Kmapp
Excerpt: as §6, §9, §10

CLK2 [12] = molecular target: T3, CLK2; experiment: Z'-LYTE activity assay (ThermoFisher SelectScreen); assay type: biochemical; parameters: purchased SelectScreen Services (ThermoFisher); conditions: [ATP] = Kmapp
Excerpt: as §6, §9, §10

STK33 [13] = molecular target: T5, STK33; experiment: Kinase assay screening against STK33 at 500 nM; assay type: biochemical; parameters: purchased SelectScreen Services (ThermoFisher)

T4 sequence (Q9HAZ1 whole entry): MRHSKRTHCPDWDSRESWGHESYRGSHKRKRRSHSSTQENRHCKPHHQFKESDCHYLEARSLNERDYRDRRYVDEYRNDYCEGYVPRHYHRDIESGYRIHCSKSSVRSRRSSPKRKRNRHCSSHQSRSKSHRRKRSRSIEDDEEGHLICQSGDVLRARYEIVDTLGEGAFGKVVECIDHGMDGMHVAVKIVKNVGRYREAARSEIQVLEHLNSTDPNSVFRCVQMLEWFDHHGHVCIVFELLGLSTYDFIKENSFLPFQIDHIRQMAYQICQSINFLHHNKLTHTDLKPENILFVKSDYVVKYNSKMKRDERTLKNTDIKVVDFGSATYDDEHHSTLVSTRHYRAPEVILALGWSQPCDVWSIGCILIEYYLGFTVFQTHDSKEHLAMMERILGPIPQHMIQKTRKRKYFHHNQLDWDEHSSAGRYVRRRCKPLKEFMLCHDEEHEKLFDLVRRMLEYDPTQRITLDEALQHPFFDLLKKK
T2 sequence (P07949 29-1114): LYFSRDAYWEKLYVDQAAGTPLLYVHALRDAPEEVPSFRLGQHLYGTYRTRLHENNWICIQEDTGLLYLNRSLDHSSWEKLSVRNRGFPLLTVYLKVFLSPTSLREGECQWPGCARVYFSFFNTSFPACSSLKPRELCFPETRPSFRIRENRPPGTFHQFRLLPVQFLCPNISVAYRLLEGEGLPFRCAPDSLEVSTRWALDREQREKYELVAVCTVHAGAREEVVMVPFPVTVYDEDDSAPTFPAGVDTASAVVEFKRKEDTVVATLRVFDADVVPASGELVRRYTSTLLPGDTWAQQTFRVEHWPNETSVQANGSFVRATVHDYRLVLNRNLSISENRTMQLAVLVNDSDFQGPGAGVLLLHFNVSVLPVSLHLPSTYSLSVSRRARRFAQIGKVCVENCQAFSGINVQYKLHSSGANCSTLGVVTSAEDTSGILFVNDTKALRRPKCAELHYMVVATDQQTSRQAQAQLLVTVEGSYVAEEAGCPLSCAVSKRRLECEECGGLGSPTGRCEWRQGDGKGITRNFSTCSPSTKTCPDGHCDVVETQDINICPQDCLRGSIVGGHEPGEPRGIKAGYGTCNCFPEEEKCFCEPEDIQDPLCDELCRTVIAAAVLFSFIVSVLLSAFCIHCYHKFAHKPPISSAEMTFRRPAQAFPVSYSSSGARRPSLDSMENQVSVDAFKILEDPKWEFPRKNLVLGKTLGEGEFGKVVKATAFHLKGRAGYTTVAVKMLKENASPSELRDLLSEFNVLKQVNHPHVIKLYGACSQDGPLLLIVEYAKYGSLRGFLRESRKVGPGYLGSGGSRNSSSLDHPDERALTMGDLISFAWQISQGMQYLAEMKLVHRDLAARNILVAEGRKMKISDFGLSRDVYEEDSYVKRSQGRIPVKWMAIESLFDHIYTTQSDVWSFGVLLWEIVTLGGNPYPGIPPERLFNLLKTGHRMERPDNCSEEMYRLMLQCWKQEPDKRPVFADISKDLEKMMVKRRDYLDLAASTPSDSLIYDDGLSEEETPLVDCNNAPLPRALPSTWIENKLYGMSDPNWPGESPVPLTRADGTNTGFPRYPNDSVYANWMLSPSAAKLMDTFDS
T1 sequence (P49759 whole entry): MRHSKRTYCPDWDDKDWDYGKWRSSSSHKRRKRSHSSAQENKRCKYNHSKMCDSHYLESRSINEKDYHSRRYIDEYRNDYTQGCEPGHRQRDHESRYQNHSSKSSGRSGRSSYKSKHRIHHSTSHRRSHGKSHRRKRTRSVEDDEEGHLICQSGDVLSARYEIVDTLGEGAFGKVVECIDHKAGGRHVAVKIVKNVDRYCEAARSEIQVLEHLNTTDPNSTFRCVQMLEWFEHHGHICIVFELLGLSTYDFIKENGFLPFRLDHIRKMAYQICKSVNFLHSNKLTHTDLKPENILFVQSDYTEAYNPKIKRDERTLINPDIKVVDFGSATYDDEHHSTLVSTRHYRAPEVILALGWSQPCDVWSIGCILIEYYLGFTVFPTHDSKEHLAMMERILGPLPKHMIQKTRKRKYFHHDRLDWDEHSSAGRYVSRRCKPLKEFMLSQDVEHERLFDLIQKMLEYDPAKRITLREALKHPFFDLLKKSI
T5 sequence (Q9BYT3 whole entry): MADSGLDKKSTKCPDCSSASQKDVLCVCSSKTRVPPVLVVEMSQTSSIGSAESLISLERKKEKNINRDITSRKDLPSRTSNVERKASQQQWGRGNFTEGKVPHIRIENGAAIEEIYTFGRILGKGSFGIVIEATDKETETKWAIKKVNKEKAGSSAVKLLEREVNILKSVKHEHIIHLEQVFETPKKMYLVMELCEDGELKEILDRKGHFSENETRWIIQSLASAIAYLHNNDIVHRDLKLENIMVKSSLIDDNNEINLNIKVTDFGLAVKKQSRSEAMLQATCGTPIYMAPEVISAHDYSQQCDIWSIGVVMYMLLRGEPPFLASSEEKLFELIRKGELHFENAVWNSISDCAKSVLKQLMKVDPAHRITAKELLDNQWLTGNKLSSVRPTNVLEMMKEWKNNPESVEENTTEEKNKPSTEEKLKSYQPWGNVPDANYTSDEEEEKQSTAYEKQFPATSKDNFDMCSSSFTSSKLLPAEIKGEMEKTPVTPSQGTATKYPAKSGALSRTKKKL
T3 sequence (P49760 whole entry): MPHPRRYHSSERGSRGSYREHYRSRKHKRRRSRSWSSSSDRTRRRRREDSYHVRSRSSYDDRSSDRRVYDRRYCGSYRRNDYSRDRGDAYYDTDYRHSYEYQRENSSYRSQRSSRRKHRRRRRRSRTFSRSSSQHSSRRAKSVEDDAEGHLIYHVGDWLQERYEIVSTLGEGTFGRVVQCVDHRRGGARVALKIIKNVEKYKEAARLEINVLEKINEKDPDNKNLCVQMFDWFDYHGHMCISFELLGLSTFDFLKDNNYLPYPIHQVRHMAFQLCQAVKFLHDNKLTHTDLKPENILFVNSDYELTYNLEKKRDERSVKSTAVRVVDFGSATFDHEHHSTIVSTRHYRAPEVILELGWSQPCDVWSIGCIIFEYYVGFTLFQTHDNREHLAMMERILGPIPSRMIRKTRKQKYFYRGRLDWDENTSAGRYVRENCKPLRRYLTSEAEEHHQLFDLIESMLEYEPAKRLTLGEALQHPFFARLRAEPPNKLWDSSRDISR

Compound: O=C(c1ccc2[nH]nc(C#Cc3ccccc3-c3ccccc3)c2c1)N1CC2(CCCCN2)C1 [Compound S6]
IC50 (STK33 [6]): 236 nM

Compound: CN(C)C1CCN(C(=O)c2ccc3[nH]nc(Cc4ccccc4-c4ccccc4)c3c2)C1 (stereo not shown) [Compound S11]
kinase assay screening against STK33 (STK33 [13]): not passing

Compound: ML281 [reference compound]
Kd (CLK4 [9]): > 1000 nM
Ki (CLK1 [10]): > 1000 nM
Ki (RET [11]): > 1000 nM
Ki (CLK2 [12]): > 1000 nM

Compound: O=C(c1ccc2[nH]nc(C#Cc3ccccc3-c3ccccc3)c2c1)N1CC2(CCNCC2)C1 [Compound S7]
Metabolic stability HLM, t1/2 [1]: 235 min
IC50 (STK33 [6]): 168 nM
Metabolic stability MLM, t1/2 [7]: 46 min

Compound: O=C(c1ccc2[nH]nc(C#Cc3ccccc3-c3ccccc3)c2c1)N1CCC2(CCNCC2)C1 [Compound S5]
IC50 (STK33 [6]): 1290 nM

Compound: O=C(c1ccc2[nH]nc(C#Cc3ccccc3-c3ccccc3)c2c1)N1CCC(O)C1 (stereo not shown) [Compound S2]
IC50 (STK33 [6]): 647 nM

Second part, the compound after the results:

half-life at 2 µM [1]: 8 min
IC50 (CLK1 [2]): 3230 nM
Fold NanoBRET IC50 CLK1 over STK33 (in parentheses) (CLK1 [2]): 3 X
IC50 (RET [3]): 1090 nM
Fold NanoBRET IC50 RET over STK33 (in parentheses) (RET [3]): 1.1 X
IC50 (CLK2 [4]): 1550 nM
Fold NanoBRET IC50 CLK2 over STK33 (in parentheses) (CLK2 [4]): 1.5 X
IC50 (CLK4 [5]): 5880 nM
Fold NanoBRET IC50 CLK4 over STK33 (in parentheses) (CLK4 [5]): 6 X
IC50 (STK33 [6]): 999 nM
half-life at 2 µM [7]: 9 min
Kd (STK33 [8]): 1.9 nM
Kd (CLK4 [9]): 21.5 ± 1 nM
Ki (CLK1 [10]): 507 ± 36 nM
Ki (RET [11]): 2 ± 1.4 nM
Ki (CLK2 [12]): 54.8 ± 3 nM
Compound: CN(C)[C@H]1CCN(C(=O)c2ccc3[nH]nc(C#Cc4ccccc4-c4ccccc4)c3c2)C1 [CDD-2212]

half-life at 2 µM [1]: 10 min
IC50 (CLK1 [2]): 1210 nM
Fold NanoBRET IC50 CLK1 over STK33 (in parentheses) (CLK1 [2]): 32 X
IC50 (RET [3]): 746 nM
Fold NanoBRET IC50 RET over STK33 (in parentheses) (RET [3]): 20 X
IC50 (CLK2 [4]): 917 nM
Fold NanoBRET IC50 CLK2 over STK33 (in parentheses) (CLK2 [4]): 24 X
IC50 (CLK4 [5]): 544 nM
Fold NanoBRET IC50 CLK4 over STK33 (in parentheses) (CLK4 [5]): 14 X
selectivity toward STK33 compared to CLK1, CLK2, CLK4, and RET (STK33 [6]): > 10 fold
IC50 (STK33 [6]): 38 nM
fold more potent than published STK33 inhibitors in cellular assays (STK33 [6]; vs compound 1, ML281, BRD8899): 20- to 310 fold
half-life at 2 µM [7]: 25 min
Kd (STK33 [8]): 0.1 nM
fold more potent than published STK33 inhibitors in biochemical assays (STK33 [8]; vs compound 1, ML281, BRD8899): 12- to 400 fold
Kd (CLK4 [9]): 9.6 ± 1.2 nM
Ki (CLK1 [10]): 234 ± 18 nM
Ki (RET [11]): 3.1 ± 0.3 nM
Ki (CLK2 [12]): 27 ± 6.6 nM
Compound: CNC(=O)C1CCN(C2CCN(C(=O)c3ccc4[nH]nc(C#Cc5ccccc5-c5ccccc5)c4c3)C2)CC1 (stereo not shown) [CDD-2110]
